# “Also recorded” adds a separate entry of the source.
# Experiments:
# zebrafish = tested on: zebrafish; design: method as in 4 sources, ref 42 = [42]; PMID 21956239; doi:10.1007/s00213-011-2482-2; 42. Braida D Neurohypophyseal hormones manipulation modulate social and anxiety-related behavior in zebrafish Psychopharmacology (Berl) 2012 220 319 330 10.1007/s00213-011-2482-2 21956239 ||| ref 44 = [44]; PMID 27247142; doi:10.1016/j.bbr.2016.05.059; 44. Zimmermann FF Gaspary KV Siebel AM Bonan CD Oxytocin reversed MK-801-induced social interaction and aggression deficits in zebrafish Behav Brain Res 2016 311 368 374 10.1016/j.bbr.2016.05.059 2724 ||| ref 51 = [51]; doi:10.1163/1568539x-00003261; 51. Lindeyer CM Langen EMA Swaney WT Reader SM Nonapeptide influences on social behaviour: effects of vasotocin and isotocin on shoaling and interaction in zebrafish Behaviour 2015 152 897 915 10.1163 ||| ref 27 = [27]; PMID 26347614; doi:10.3389/fncir.2015.00039; 27. Dreosti E Lopes G Kampff AR Wilson SW Development of social behavior in young zebrafish Front Neural Circuits 2015 9 39 10.3389/fncir.2015.00039 26347614 PMC4539524; settings: cited from earlier work
# Source text: Thus far, dopamine[56] and serotonin[57] in the mesolimbic system and excitation-inhibition balance[58] seem to play a prominent role in social investigation in rodents. Similarly, levels of dopamine and serotonin are modulated in socially interacting fish[59]–[61] and social preference behaviour decreases after treatment with a dopamine D1 receptor antagonist. […] In rodents, release of ... || (+ 1 further places)
# adult zebrafish = assay: Social preference in adult zebrafish; assay type: in vivo, zebrafish (Danio rerio)
# Procedure: Adult and larval behavioural testing was performed between 9 AM and 4 PM. All fish were fed prior to and after experiments, and larvae were also given an additional feed at midday. Adult fish were of a 1:1 sex ratio, and focal fish and stimulus fish were size-matched. Adult fish and shoals were filmed using a web camera and Debut Video Capture Software (NCH Software, Greenwood Village, USA), and videos were analysed using EthoVision version 11 (Noldus, Wageningen, the Netherlands).
# The experimental setup comprised one large test tank (60 cm × 30 cm), and two smaller side tanks (15 cm × 30 cm) positioned at the short ends of the test tank; see Fig. 4. The test tank (the arena) was divided into five different zones used when tracking the video recordings, see Fig. 4. The zone closest to the stimuli shoal was always designated Zone 1, and the zone furthest away from the shoal was always designated Zone 5. […] All tanks were visually isolated from each other during the acclimation period of 10 minutes.
# A stimulus shoal of eight zebrafish, with a 1:1 sex ratio, was placed in one of the side tanks, while the opposite side tank remained empty. Focal fish and shoal fish were selected to be of similar size in order not to evoke adverse reactions, such as anxiety or aggression. The experiments were thoroughly randomized between treatment groups for time of day and shoal used. The stimulus fish had been habituated to the room and aquarium for 24 hours prior to the start of the experiments. Two shoals were used as stimulus shoals throughout the experiment. The side for the stimulus shoal was alternated in order to avoid any potential place preference of the focal fish. The reasons for using two shoals for all focal fish were to decrease the behavioural variation in focal fish that may be caused by inter-shoal variations, to decrease the stress in stimulus fish caused by netting and transferring them between tanks that may be transferred to the focal fish, and to limit the number of fish used according to the 3 R principles. There were no statistical significant effects of day of testing (One-way ANOVA; p > 0.7), time of testing (One-way ANOVA; p > 0.5), or the identity of the stimulus shoal (shoal 1 versus shoal 2; un-paired t-test; p > 0.1) on the total time the focal fish spent in Zone 1 (closest to the shoal) during the 15 minutes test time.
# At 24 hours prior to the experiment, zebrafish were weighed, placed into separate holding tanks, and brought to the experimental room in order to acclimatise. The following day fish were intraperitoneally injected with vehicle Ringer’s solution (13 females and 8 males), or the antagonist (11 females and 10 males). The Ringer’s solution recipe was retrieved from the Zebrafish Information Network (ZFIN, University of Oregon, Eugene, OR, USA).
# Intraperitoneal injections were conducted using a 1 mL U-100 BD MicroFine™ Insulin Syringe (Becton Dickinson France S.A.S., France). Post injection, animals were placed into their holding tanks for one hour to recover. […] Following this, focal fish were individually placed in the middle of the test tank and left to freely move around for ten minutes (acclimation period) before visual partitions were removed, which initiated the start of the test period (15 minutes).
# All data for the social preference and novel tank diving experiments in adults were extracted as processed means per minute from EthoVision. For the shoaling experiments, raw data was exported from EthoVision, and then post-processed by an in-house script written in Python 3.4, in order to compute IFD, NND, and FND as described elsewhere. For timelines, repeated measures analysis of variance (RM-ANOVA) was used. For pairwise comparisons of total means between groups, Student’s T-tests were used.
smiles,measurement,setting,value
"Cc1ccccc1N1CCN(S(=O)(=O)C[C@]23CC[C@H](C[C@@H]2NC(=O)[C@@H](N)CCS(C)(=O)=O)C3(C)C)CC1 [L-368,899]","Social preference, compound by itself",zebrafish; adult zebrafish,did not decrease social preference
same,Social deficits following MK-801 exposure,zebrafish; zebrafish exposed to glutamate antagonist MK-801,did not reverse those deficits
same,"Social preference in adults, in words",adult zebrafish; 100 µg per gram fish i.p.,decreased social preference; also recorded: inhibits social preference
same,"Social preference in adults, in words","adult zebrafish; 100 µg per gram fish i.p., listed as antagonist",did not completely abolish social preference
same,Time in all the other zones vs vehicle,"adult zebrafish; 15 min test, 100 µg per gram fish i.p.",significantly more time
same,Time in Zone 1 (closest to the shoal) vs vehicle,"adult zebrafish; 15 min test, 100 µg per gram fish i.p., t(39) = 3.339, p = 0.0016",significantly less time
same,Distance from shoal vs vehicle,"adult zebrafish; 15 min test, F(1,39) = 10.79, p = 0.0022",significantly further away
same,Social behaviour: Distance to shoal,"adult zebrafish; adult social preference, 100 µg per gram fish i.p., 1 h before test, mean ± SEM, vehicle 11.0 ± 1.8",19.7 ± 1.9 cm
same,Social behaviour: Social zone duration,"adult zebrafish; adult social preference, 100 µg per gram fish i.p., 1 h before test, mean ± SEM, vehicle 45.9 ± 2.3",34.5 ± 2.4 s/min
same,Locomotion: Distance,"adult zebrafish; adult social preference, 100 µg per gram fish i.p., 1 h before test, mean ± SEM, vehicle 528 ± 19, p = 0.25",496 ± 20 cm/min
same,"Activity parameters vs vehicle, social preference test","adult zebrafish; average distance p = 0.25, average velocity p = 0.32",no significant differences
same,"Approach to shoal, acclimation vs test period","adult zebrafish; paired T-test, average distance to shoal, antagonist t(19) = 5.983, p = 9e-6",responded to the visual stimuli of a conspecific shoal
same,"Social preference, pilot experiment, 5 μg per gram fish","adult zebrafish; pilot, 5 μg L-368,899 per gram fish",did not affect social preference
same,"Social preference, pilot experiment, 50 μg per gram fish","adult zebrafish; pilot, 50 μg L-368,899 per gram fish",did not affect social preference
